Data published in patent US10023922B2, “Reporter of genomic methylation and uses thereof” (Whitehead Institute for Biomedical Research, priority 2015, dated 2018).

Tested on: Gapdh and Dazl reporter constructs
Assay: In vitro methylation of reporter plasmids, checked by bisulfite conversion, PCR amplification and sequencing
Format: biochemical
Settings: FIGS. 2A and 2B
Text: Conversely, we were interested to assess whether a methylated and silent donor Snrpn promoter can be reactivated by means of demethylation acquired in vivo. For this we used the CpG methyltransferase M.SssI to in vitro methylate both Gapdh and Dazl reporter constructs.
Bisulfite conversion of DNA was established using the EpiTect Bisulfite Kit (Qiagen) following the manufacturer's instructions. The resulting modified DNA was amplified by first round of nested PCR, following a second round using loci specific PCR primers (see complete list of primers below). The first round of nested PCR was done as follows: 94° C. for 4 min; 55° C. for 2 min; 72° C. for 2 min; Repeat steps 1-3 1×; 94° C. for 1 min; 55° C. for 2 min; 72° C. for 2 min; Repeat steps 5-7 35×; 72° C. for 5 min; Hold 12° C. The second round of PCR was as followed: 95° C. for 4 min; 94° C. for 1 min; 55° C. for 2 min; 72° C. for 2 min; Repeat steps 2-4 35×; 72° C. for 5 min; Hold 12° C. The resulting amplified products were gel-purified, subcloned into A pCR2.1-TOPO-TA cloning vector (Life Technologies), and sequenced.

Substance: M.SssI: CpG methyltransferase used to in vitro methylate reporter constructs
- methylation of CGI and Snrpn promoter regions of the treated plasmids: complete hypermethylation
